Each structure is given as a SMILES string.

Here are results for one molecule from US10487313B2, “Efficient induction of definitive endoderm from pluripotent stem cells” (Novo Nordisk A/S, priority 2011, dated 2019).

The test system of this assay is chIPS4 cells. In words: Further differentiation of DE towards pancreatic endoderm, PDX1 by ICC and real-time PCR. The class given is cell-based, human. As to conditions: seven days after induction of PE differentiation. On the procedure:
When cells were further differentiated to PE, the DE protocol was applied in T75 cell culture flasks and reseeded after 4 d of DE culture at a density of 200 K in DE media. 1 d later, cells were washed once before addition of PE media (RPMI1640+12% KOSR+64 ng/ml bFGF) according to published protocol (Amen et al 2010). RNA samples were collected after 24 h pre-treatment (D1), after 1 day of AA treatment (D2) and after 1-2 d of AA+B27 treatment (D3-4). Total RNA was extracted with the Rneasy Plus Mini kit (Qiagen) and quantitative real-time PCR was performed using the StepOnePLus system (Applied Biosystems). Cells were washed in PBS+/+ and fixed in 4% formaldehyde for 30 min (10% formaline, VWR). The cells were then washed again three times in PBS and left in PBS (4° C.) until staining. Fixed cells were washed with PBS once, then permeabilized with 0.5% Triton X-100 in PBS for 6 min, washed in PBS and blocked with TNB buffer (0.1 M Tris-HCL pH 7.5, 0.15 M NaCl, 0.5% Blocking Reagent (Perkin Elmer)) for 30 min. […] Seven days after the induction of PE differentiation the cells were fixed and analyzed by ICC using a PDX1 specific antibody. […] In parallel, mRNA was collected from the cells and the PDX1 expression was analyzed by real-time PCR. […]

With `Cc1c[nH]c(-c2cnc(NCCNc3ccc(C#N)cn3)nc2-c2ccc(Cl)cc2Cl)n1` [CHIR, CHIR99021], the “PDX1 mRNA expression by real-time PCR” value is “clear expression” and the “PDX1 staining by ICC” value is “evident”.
